Data published in US12059428B2, “Methods of treating tumor metastasis” (TARIS Biomedical LLC, priority 2017, dated 2024).
Entries after “also recorded” stand apart in the source; their conditions may differ.

Key:
[1] = tested on: subcutaneous NBTII tumors; assay: Bladder and flank NBTII tumor model, subcutaneous tumor volume by caliper (Example 1); type: in vivo, rat
Text: Standardized bladder perfusion system was modified to introduce bladder and subcutaneous tumors. The bladders were first surgically cannulated by placing a catheter into the bladder, fixed in place using a suture, the free end exteriorized between the scapulae.
The animals were allowed to heal. Bladder tumors were established by injecting tumor cell suspension directly into bladder wall. Subcutaneous tumor was established by injecting tumor cell suspension under skin abdominal flank.
The bladder and flank tumor model used in this study utilized immunocompetent Wistar rats, 7 to 8 weeks in age and weighing between 150 to 200 g. The bladders were first surgically cannulated by placing a P50 catheter into the bladder dome which was fixed in place using a purse string suture and the free end exteriorized between the scapulae. […] Per study protocol, different groups of bladder cannulated rats were next inoculated with NBTII tumor cells (Nara Bladder Tumor No. 2; ATCC® CRL1655™). This is a rat syngeneic bladder tumor cell line originally derived from tumors induced with N-butyl-N-(4-hydroxybutyl) nitrosamine. In certain treatment groups, the tumor cells were injected directly into the bladder wall as a 50 uL cell suspension of approximately 2×10^6 cells. […]
Group 4 (SCT with BT, N=10) animal bladders were cannulated on study Day 0 and on study Day 4 both the bladder and abdominal flank were inoculated with NBTII tumor cells. Gemcitabine HCl in PBS (180 ug/mL) was perfused via the cannula into the bladder beginning on study Day 6 at a constant rate of 0.3 mL per hour for 5 days and again beginning on Day 20 for an additional 5 day treatment period.
Subcutaneous tumor volumes were serially measured post inoculation every two or three days using a caliper method.

[2] = tested on: T24-TurboFP635 human derived MIBC cells; assay: Bladder tumor bioluminescence in athymic rats with T24-TurboFP635 cells injected into the bladder; type: in vivo, rat; details: for reduction in bladder tumor bioluminescence vs control: athymic rats, 5-day perfusion, day 5
Description: (§1) The direct effects of low dose gemcitabine were studied in athymic rats with human derived MIBC cells, T24-TurboFP635, injected into the bladder. After 3 days tumor growth, gemcitabine or vehicle was perfused into the bladder over 5 days, yielding nominal urine concentrations of 0, 20, 40, or 80 ug/ml gemcitabine, N=6 per group. Tumor bioluminescence was measured on day 5. A companion study in immunocompetent rats inoculated with syngeneic NBTII bladder tumors, provided tumors for immunocyte analysis.

[3] = tested on: tumor T regulatory cells to T effector cells; assay: Flow cytometric immunocyte analysis of residual NBTII bladder tumors; type: in vivo, rat; details: residual NBTII tumors from immunocompetent rats
Description: as §1

NBTII flank tumors = assay: Gemcitabine immunogenicity study, NBTII bladder and flank tumors (Example 2); type: in vivo, rat
Text: Gemcitabine immunogenicity was studied in immunocompetent rats with NBTII cells injected into the bladder and subcutaneous flank tissue; flank tumors were implanted either simultaneously with bladder tumors or 14 days after bladder tumor injection. Control groups received only flank tumors, N=15, or bladder and flank tumors with vehicle perfusion, N=10. […]

[4] = tested on: subcutaneous NBTII tumors; assay: Varying gemcitabine bladder exposure, simultaneously implanted bladder and subcutaneous NBTII tumors (Example 3); type: in vivo, rat; details: perfusion 45 and 90 μg/ml, nominal urine 10 and 20 μg/ml, FIG. 6
Text: Extending the investigation described in EXAMPLE 1, additional studies of NBTII bladder and subcutaneous tumors evaluated the effect of varying gemcitabine bladder exposures with and without simultaneous bladder tumor implantation.
In one set of experiments, gemcitabine perfusion concentrations were varied to evaluate the effect of differing bladder tumor exposures on subcutaneous tumor growth rates. Bladder cannulated rats (n=10 per treatment group) with simultaneously implanted bladder and subcutaneous NBTII tumors were studied over two treatment cycles, each separated by a 7-day drug free period, as used in the EXAMPLE 1 study.
Gemcitabine perfusion concentrations of 45 μg/ml and 90 μg/ml were tested, producing nominal urine concentrations of 10 μg/ml and 20 μg/ml respectively, representing […] reductions vs the original study gemcitabine urine concentrations. Subcutaneous tumor growth was measured during the study as previously.

[5] = tested on: subcutaneous NBTII tumors; assay: Bladder cannulated rats with only subcutaneous NBTII tumors, no bladder tumor (Example 4); type: in vivo, rat; details: two perfusion cycles, FIG. 7
Description: To confirm the observed effects on subcutaneous tumor growth is the result of the local action of intravesical gemcitabine on bladder tumors, an additional series of experiments were completed in which bladder cannulated rats were implanted with only subcutaneous NBTII tumors. The animals were then treated with two perfusion cycles of intravesical gemcitabine as in the previous experiments. […] These findings both confirm the presence of a bladder tumor is required and the observed reductions in subcutaneous tumors are mediated immunologically.

TGF-β = assay: Circulating TGF-β in rats inoculated with NBTII bladder tumors; type: in vivo, rat; details: low concentration intravesical perfusion, FIG. 8
Text: TGF-β drives Treg cell expression which in turn suppresses both local and systemic CD4 and CD8 T cell response against the bladder tumor.

IL-10 = IL-10 levels in rats inoculated with NBTII bladder tumors; type: in vivo, rat; details: spleens of treated animals, FIG. 9
Text: (§2) IL-10 increases associated with acute treatment are known to facilitate T cell mediated antitumor effects.

TNF-α = TNF-α levels in rats inoculated with NBTII bladder tumors; type: in vivo, rat; details: FIG. 10
Text: as §2

[6] = tested on: activated CD4 and CD8 cells in the spleen; assay: Activated CD4 and CD8 cells in the spleen by flow cytometry, NBT-II tumor rats; type: in vivo, rat; details: vs untreated tumor rats, FIG. 11
Description: Rats were inoculated with NBT-II tumors and the number of activated CD4 and CD8 cells in the spleen was assessed by flow cytometry either in rats treated with intravesicular gemcitabine or untreated rats. […] Intravesicular gemcitabine increased the percentage of activated CD4 and CD8 cells, thus indicating activation of the immune system against the tumor.

[7] = tested on: CD4+FOXP3+ and CD8+FOXP3+ regulatory T cells; assay: Splenic regulatory T cells by flow cytometry, NBT-II tumor rats; type: in vivo, rat; details: vs untreated tumor rats, FIG. 12
Text: The percentage splenic of regulatory T cells was assed using flow cytometry. […] Intravesicular gemcitabine increased the percentage of activated Cn both CD4+FOXP3+ and CD8+FOXP3+ regulatory T cells, thus indicating activation of the systemic immune system against the tumor.

[8] = Gemcitabine urine concentration during intravesicular perfusion; type: in vivo, rat; details: intravesicular perfusion of 180 ug/ml solution
NBTII tumor cells = assay: Bladder tumor growth after inoculation with NBTII tumor cells; type: in vivo, rat; details: average urine concentration 40 ug/mL
[9] = prior studies in animals and humans; cited from earlier work
[10] = rats with concomitant bladder tumors

With `Nc1ccn([C@@H]2O[C@H](CO)[C@@H](O)C2(F)F)c(=O)n1` [gemcitabine, 2′,2′-difluorodeoxycytidine] as the compound, how does the “subcutaneous tumor volume during second 5-day intravesical perfusion” value ([1]; Group 3 (SCT after BT): subcutaneous tumor implanted Day 17 after first perfusion, 180 ug/mL) read?
Its value is “all subcutaneous tumors were undetectable by palpation; also recorded: immediately declined in tumor volume until the tumors were no longer detectable”.

What about the “eradication of subcutaneous tumors upon retreatment” value ([1]; Group 3 and 4 combined, two 5-day cycles of 180 ug/mL) of the same compound?
The value was “complete eradication of all but one subcutaneous tumor”.

And the “subcutaneous tumor volume after second 5-day intravesical treatment” value ([1]; Group 4 (SCT with BT), 180 ug/mL, second cycle from Day 20)?
The value was “all but one tumor was undetectable by palpation”.

And the “subcutaneous tumor growth over the 7-day drug free period” value ([1]; Group 4 (SCT with BT), after first 5-day perfusion of 180 ug/mL)?
The value was “failed to return to their initial growth rate”.

And the “subcutaneous tumor growth by the end of the first intravesical perfusion period” value ([1]; Group 4 (SCT with BT): bladder and subcutaneous tumors Day 4, 180 ug/mL perfused 0.3 mL per hour for 5 days)?
The value was “dramatically slowed or fully arrested; also recorded: continued to grow for several days prior to arresting”.

What about the “reduction in bladder tumor bioluminescence vs control” value (“reduction” for short) ([2]; nominal urine concentration 20 ug/ml) of the same compound?
Its value is 47.6%.

What about the “reduction” value ([2]; nominal urine concentration 40 ug/ml) of the same compound?
The value was 70.5%.

And the “reduction” value ([2]; nominal urine concentration 80 ug/ml)?
The value was 91.2%.

What about the “bladder tumor growth after inoculation with T24 tumor cells” value ([2]; average urine concentration 40 ug/mL) of the same compound?
The value was “significantly reduce bladder tumor growth”.

And the “decrease in the proportion of tumor T regulatory cells to T effector cells” value [3]?
Its value is 85.2%.

And the “flank tumor growth arrest during the 7-day drug free period” value (NBTII flank tumors; 60 ug/ml group)?
The value was “this effect was maintained”.

And the “flank tumor response, implantation delayed to 3 days before the second perfusion” value (NBTII flank tumors; flank tumor implanted 14 days after bladder tumor)?
Its value is “no tumor growth, but immediate tumor ablation”.

And the “flank tumor response to the second perfusion” value (NBTII flank tumors; flank tumors implanted simultaneously with bladder tumors)?
Its value is “rapid flank tumor ablation in all but one animal”.

What about the “flank tumor growth during the first perfusion cycle” value (NBTII flank tumors; [10]) of the same compound?
The value was “fully arrested”.

What about the “flank tumor size relative to controls during the first perfusion cycle” value (NBTII flank tumors; [10]) of the same compound?
Its value is 50 % of controls.

And the “subcutaneous tumor volume at reduced urine concentrations” value [4]?
Its value is “dose related reduction in subcutaneous tumor volume”.

And the “subcutaneous tumor volume during the second treatment cycle” value [4]?
The value was “significantly decreased to near ablation”.

And the “subcutaneous tumor growth in rats without bladder tumor” value [5]?
Its value is “continued to grow throughout both treatment cycles”.

And the “circulating TGF-β plasma concentration” value (TGF-β)?
The value was “suppressed TGF-β production”.

And the IL-10 levels (IL-10)?
The IL-10 levels was “increased IL-10 levels”.

What about the TNF-α level (TNF-α) of the same compound?
The TNF-α level was “moderately increased”.

And the “percentage of activated CD4 cells in the spleen” value [6]?
Its value is “increased”.

What about the “percentage of activated CD8 cells in the spleen” value [6] of the same compound?
The value was “increased”.

What about the “percentage of splenic CD4+FOXP3+ regulatory T cells” value [7] of the same compound?
The value was “increased”.

What about the “percentage of splenic CD8+FOXP3+ regulatory T cells” value [7] of the same compound?
The value was “increased”.

What about the “average gemcitabine urine concentration” value [8] of the same compound?
The value was 40 µg/mL.

What about the “bladder tumor growth after inoculation with NBTII tumor cells” value (NBTII tumor cells) of the same compound?
The value was “significantly reduce bladder tumor growth”.

And the “systemic drug concentrations after low concentrations of intravesical gemcitabine” value [9]?
The value was “do not produce therapeutic drug concentrations systemically”.
